Measured values taken from patent US10189838B2, “Aza-oxo-indoles for the treatment and prophylaxis of respiratory syncytial virus infection” (Hoffmann-La Roche Inc., priority 2013, dated 2019).

Tested on: RSV Long strain
Test: Viral cytopathic effect (CPE) assay, RSV Long strain
Assay type: cell-based, Respiratory Syncytial Virus
Conditions: human respiratory syncytial virus, 144 h, cell viability after 6 days (Cell Counting kit-8)
Description: EC50: the concentration of a compound where 50% of its maximal protection effect against viral induced CPE is observed
LongStrain: an A subtype RSV strain obtained from ATCC with catalog number VR-26
To measure anti-RSV activity of compounds, 96-well plates are seeded with 6×10^3 cells per well in Dulbecco's modified Eagle's medium (DMEM) containing 10% fetal bovine serum (FBS). Cells are infected the next day with sufficient RSV Long strain (ATCC) to produce an approximately 80-90% cytopathic effect after 6 days, in the presence of serial half-log diluted compound in a total volume of […] per well. The viability of cells is assessed after 6 days using Cell Counting kit-8 (Dojindo Molecular Technologies). The absorbance at 450 nm and referenced at 630 nm is measured to determine 50% effective concentration (EC50)

O=C1N(Cc2cc3nc(Cl)ccc3n2CCCS(=O)(=O)C2CC2)c2cnccc2C12CC2 [Example 4-6, 1′-({5-Chloro-1-[3-(cyclopropylsulfonyl)propyl]-1H-pyrrolo[3,2-b]pyridin-2-yl}methyl)spiro[cyclopropane-1,3′-pyrrolo[2,3-c]pyridin]-2′(1′H)-one]
EC50: 29 nM

CS(=O)(=O)CCCCn1c(CN2C(=O)C3(CC3)c3ccncc32)cc2cc(Cl)ncc21 [Example 4-7, 1′-({5-Chloro-1-[4-(methylsulfonyl)butyl]-1H-pyrrolo[2,3-c]pyridin-2-yl}methyl)spiro[cyclopropane-1,3′-pyrrolo[2,3-c]pyridin]-2′(1′H)-one]
EC50: 27 nM

CN(Cc1ccccc1)S(=O)(=O)CCCn1c(CN2C(=O)C3(CC3)c3ccncc32)cc2cc(Cl)cnc21 [Example 4-8, N-Benzyl-3-{5-chloro-2-[(2′-oxospiro[cyclopropane-1,3′-pyrrolo[2,3-c]pyridin]-1′(2′H)-yl)methyl]-1H-pyrrolo[2,3-b]pyridin-1-yl}-N-methylpropane-1-sulfonamide]
EC50: 778 nM

O=C1N(Cc2cc3cc(Cl)ncc3n2CCCS(=O)(=O)C2CC2)c2cnccc2C12CC2 [Example 4-9, 1′-({5-Chloro-1-[3-(cyclopropylsulfonyl)propyl]-1H-pyrrolo[2,3-c]pyridin-2-yl}methyl)spiro[cyclopropane-1,3′-pyrrolo[2,3-c]pyridin]-2′(1′H)-one]
EC50: 48.7 nM

O=C1N(Cc2cc3cc(Cl)ncc3n2CCC2CSC2)c2cnccc2C12CC2 [Example 4-10, 1′-({5-Chloro-1[2-(thietan-3-yl)ethyl]-1H-pyrrolo[2,3-c]pyridin-2-yl}methyl)spiro[cyclopropane-1,3′-pyrrolo[2,3-c]pyridin]-2′(1′H)-one]
EC50: 74 nM

O=C1N(Cc2cc3cc(Cl)ncc3n2CCC2CS(=O)(=O)C2)c2cnccc2C12CC2 [Example 4-11, 1′-({5-Chloro-1-[2-(1,1-dioxidothietan-3-yl)ethyl]-1H-pyrrolo[2,3-c]pyridin-2-yl}methyl)spiro[cyclopropane-1,3′-pyrrolo[2,3-c]pyridin]-2′(1′H)-one]
EC50: 18 nM

CS(=O)(=O)CCCn1c(CN2C(=O)C3(CCC3)c3ccncc32)cc2cc(Cl)cnc21 [Example 4-12, 1′-({5-Chloro-1-[3-(methylsulfonyl)propyl]-1H-pyrrolo[2,3-b]pyridin-2-yl}methyl)spiro[cyclobutane-1,3′-pyrrolo[2,3-c]pyridin]-2′(1′H)-one]
EC50: 56.8 nM

CS(=O)(=O)CCCn1c(CN2C(=O)C3(CC3)c3ccncc32)cc2cc(Cl)ncc21 [Example 4-13, 1′-({5-Chloro-1-[3-(methylsulfonyl)propyl]-1H-pyrrolo[2,3-c]pyridin-2-yl}methyl)spiro[cyclopropane-1,3′-pyrrolo[2,3-c]pyridin]-2′(1′H)-one]
EC50: 26 nM

O=C1N(Cc2cc3nc(Cl)ccc3n2CCS(=O)(=O)C2CC2)c2cnccc2C12CC2 [Example 4-14, 1′-({5-Chloro-1-[2-(cyclopropylsulfonyl)ethyl]-1H-pyrrolo[3,2-b]pyridin-2-yl}methyl)spiro[cyclopropane-1,3′-pyrrolo[2,3-c]pyridin]-2′(1′H)-one]
EC50: 72 nM

CS(=O)(=O)CCCn1c(CN2C(=O)C3(CC3)c3ccncc32)cc2nc(Cl)ccc21 [Example 4-15, 1′-({5-Chloro-1-[3-(methylsulfonyl)propyl]-1H-pyrrolo[3,2-b]pyridin-2-yl}methyl)spiro[cyclopropane-1,3′-pyrrolo[2,3-c]pyridin]-2′(1′H)-one]
EC50: 18 nM

CS(=O)(=O)CCCCn1c(CN2C(=O)C3(CC3)c3ccncc32)cc2cc(Cl)cnc21 [Example 4-16, 1′-({5-Chloro-1-[4-(methylsulfonyl)butyl]-1H-pyrrolo[2,3-b]pyridin-2-yl}methyl)spiro[cyclopropane-1,3′-pyrrolo[2,3-c]pyridin]-2′(1′H)-one]
EC50: 54.9 nM

C[S+]([O-])CCCn1c(CN2C(=O)C3(CC3)c3ccncc32)cc2cc(Cl)ccc21 (stereo not drawn) [Example 5-1, 1′-({5-Chloro-1-[3-(methylsulfinyl)propyl]-1H-indol-2-yl}methyl)spiro[cyclopropane-1,3′-pyrrolo[2,3-c]pyridin]-2′(1′H)-one]
EC50: 9 nM

CS(=O)(=O)CCn1c(CN2C(=O)C3(CC3)c3ccncc32)cc2cc(Cl)ncc21 [Example 5-2, 1′-({5-Chloro-1-[2-(methylsulfonyl)ethyl]-1H-pyrrolo[2,3-c]pyridin-2-yl}methyl)spiro[cyclopropane-1,3′-pyrrolo[2,3-c]pyridin]-2′(1′H)-one]
EC50: 269 nM

CCS(=O)(=O)CCn1c(CN2C(=O)C3(CC3)c3ccncc32)cc2nc(Cl)ccc21 [Example 6, 1′-({5-Chloro-1-[2-(ethylsulfonyl)ethyl]-1H-pyrrolo[3,2-b]pyridin-2-yl}methyl)spiro[cyclopropane-1,3′-pyrrolo[2,3-c]pyridin]-2′(1′H)-one]
EC50: 131 nM

CN(C)S(=O)(=O)CCCn1c(CN2C(=O)C3(CC3)c3ccncc32)cc2cc(Cl)ccc21 [Example 7-1, 3-{5-Chloro-2-[(2′-oxospiro[cyclopropane-1,3′-pyrrolo[2,3-c]pyridin]-1′(2′H)-yl)methyl]-1H-indol-1-yl}-N,N-dimethylpropane-1-sulfonamide]
EC50: 7 nM

CN(C)S(=O)(=O)CCCn1c(CN2C(=O)C3(CC3)c3ccncc32)cc2cc(Cl)cnc21 [Example 7-2, 3-{5-Chloro-2-[(2′-oxospiro[cyclopropane-1,3′-pyrrolo[2,3-c]pyridin]-1′(2′H)-yl)methyl]-1H-pyrrolo[2,3-b]pyridin-1-yl}-N,N-dimethylpropane-1-sulfonamide]
EC50: 64 nM

CN(C)S(=O)(=O)CCn1c(CN2C(=O)C3(CC3)c3ccncc32)cc2cc(Cl)ccc21 [Example 7-3, 2-{5-Chloro-2-[(2′-oxospiro[cyclopropane-1,3′-pyrrolo[2,3-c]pyridin]-1′(2′H)-yl)methyl]-1H-indol-1-yl}-N,N-dimethylethanesulfonamide]
EC50: 23 nM

O=C1N(Cc2cc3cc(Cl)ccc3n2CCCS(=O)(=O)N2CCOCC2)c2cnccc2C12CC2 [Example 7-4, 1′-({5-Chloro-1-[3-(morpholin-4-ylsulfonyl)propyl]-1H-indol-2-yl}methyl)spiro[cyclopropane-1,3′-pyrrolo[2,3-c]pyridin]-2′(1′H)-one]
EC50: 14 nM

O=C1N(Cc2cc3cc(Cl)ccc3n2CCCS(=O)(=O)N2CCCC2)c2cnccc2C12CC2 [Example 7-5, 1′-({5-Chloro-1-[3-(pyrrolidin-1-ylsulfonyl)propyl]-1H-indol-2-yl}methyl)spiro[cyclopropane-1,3′-pyrrolo[2,3-c]pyridin]-2′(1′H)-one]
EC50: 20 nM

O=C1CN(S(=O)(=O)CCCn2c(CN3C(=O)C4(CC4)c4ccncc43)cc3cc(Cl)ccc32)CCN1 [Example 7-6, 1′-[(5-Chloro-1-{3-[(3-oxopiperazin-1-yl)sulfonyl]propyl}-1H-indol-2-yl)methyl]spiro[cyclopropane-1,3′-pyrrolo[2,3-c]pyridin]-2′(1′H)-one]
EC50: 7 nM

O=C1N(Cc2cc3cc(Cl)ccc3n2CCN2CCCS2(=O)=O)c2cnccc2C12CC2 [Example 7-7, 1′-({5-Chloro-1-[2-(1,1-dioxido-1,2-thiazolidin-2-yl)ethyl]-1H-indol-2-yl}methyl)spiro[cyclopropane-1,3′-pyrrolo[2,3-c]pyridin]-2′(1′H)-one]
EC50: 35 nM
